We go through six compounds from patent US20240246967A1, “AXL COMPOUNDS” (ARCUS BIOSCIENCES, INC., priority 2021, published 2024).

pIC50: −log10 of the molar value.

One test concerns the target T1, human MER (Homo sapiens, UniProt Q12866).
T1 construct: purchased Invitrogen
T1 sequence (Q12866 21-999): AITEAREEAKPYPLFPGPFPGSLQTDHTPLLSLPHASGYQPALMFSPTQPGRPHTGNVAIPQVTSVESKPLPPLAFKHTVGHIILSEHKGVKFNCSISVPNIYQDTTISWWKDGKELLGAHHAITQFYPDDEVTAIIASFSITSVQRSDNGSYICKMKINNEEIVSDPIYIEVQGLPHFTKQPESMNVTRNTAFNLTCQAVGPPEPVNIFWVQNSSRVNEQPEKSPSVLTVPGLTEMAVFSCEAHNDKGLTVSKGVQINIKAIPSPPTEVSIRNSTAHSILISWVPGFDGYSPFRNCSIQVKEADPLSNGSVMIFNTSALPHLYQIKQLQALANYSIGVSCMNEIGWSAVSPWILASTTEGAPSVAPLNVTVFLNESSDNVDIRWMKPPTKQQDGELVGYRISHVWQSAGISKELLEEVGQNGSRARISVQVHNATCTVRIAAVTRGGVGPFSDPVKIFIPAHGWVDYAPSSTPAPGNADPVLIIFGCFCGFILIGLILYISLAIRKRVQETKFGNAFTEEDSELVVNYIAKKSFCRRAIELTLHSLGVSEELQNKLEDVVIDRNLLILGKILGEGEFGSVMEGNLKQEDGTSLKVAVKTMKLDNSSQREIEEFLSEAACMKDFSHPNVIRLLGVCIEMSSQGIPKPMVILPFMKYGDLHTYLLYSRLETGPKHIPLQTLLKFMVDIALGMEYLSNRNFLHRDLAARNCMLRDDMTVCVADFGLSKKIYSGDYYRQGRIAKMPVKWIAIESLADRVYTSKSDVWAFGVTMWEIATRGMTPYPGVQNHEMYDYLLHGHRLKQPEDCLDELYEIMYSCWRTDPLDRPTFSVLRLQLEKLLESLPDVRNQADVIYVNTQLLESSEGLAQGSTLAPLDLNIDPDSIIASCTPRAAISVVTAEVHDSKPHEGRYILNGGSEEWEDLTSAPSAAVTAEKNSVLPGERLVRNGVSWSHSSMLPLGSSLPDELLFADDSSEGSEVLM
As to the kind of experiment: HTRF KinEASE-TK biochemical potency assay, MER. The following applies: 1 nM MER, 700 μM ATP, 800 nM TK Substrate-biotin. In short, it runs like this:
(§1)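 Recombinant human kinase preincubated 1 h at RT with compound, then reacted 2 h at RT with 800 nM biotin-TK substrate and 700 μM ATP (final; 5 nM AXL, 1 nM TYRO3 or MER) in HEPES pH 7.4, MgCl2, BSA, DTT, 1% DMSO. HTRF 665/620 ratio read; percent activity versus DMSO and pre-quenched controls.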

The target in another test is T2, human TYRO3 (Homo sapiens, UniProt Q06418).
T2 construct: purchased Invitrogen
T2 sequence (Q06418 41-890): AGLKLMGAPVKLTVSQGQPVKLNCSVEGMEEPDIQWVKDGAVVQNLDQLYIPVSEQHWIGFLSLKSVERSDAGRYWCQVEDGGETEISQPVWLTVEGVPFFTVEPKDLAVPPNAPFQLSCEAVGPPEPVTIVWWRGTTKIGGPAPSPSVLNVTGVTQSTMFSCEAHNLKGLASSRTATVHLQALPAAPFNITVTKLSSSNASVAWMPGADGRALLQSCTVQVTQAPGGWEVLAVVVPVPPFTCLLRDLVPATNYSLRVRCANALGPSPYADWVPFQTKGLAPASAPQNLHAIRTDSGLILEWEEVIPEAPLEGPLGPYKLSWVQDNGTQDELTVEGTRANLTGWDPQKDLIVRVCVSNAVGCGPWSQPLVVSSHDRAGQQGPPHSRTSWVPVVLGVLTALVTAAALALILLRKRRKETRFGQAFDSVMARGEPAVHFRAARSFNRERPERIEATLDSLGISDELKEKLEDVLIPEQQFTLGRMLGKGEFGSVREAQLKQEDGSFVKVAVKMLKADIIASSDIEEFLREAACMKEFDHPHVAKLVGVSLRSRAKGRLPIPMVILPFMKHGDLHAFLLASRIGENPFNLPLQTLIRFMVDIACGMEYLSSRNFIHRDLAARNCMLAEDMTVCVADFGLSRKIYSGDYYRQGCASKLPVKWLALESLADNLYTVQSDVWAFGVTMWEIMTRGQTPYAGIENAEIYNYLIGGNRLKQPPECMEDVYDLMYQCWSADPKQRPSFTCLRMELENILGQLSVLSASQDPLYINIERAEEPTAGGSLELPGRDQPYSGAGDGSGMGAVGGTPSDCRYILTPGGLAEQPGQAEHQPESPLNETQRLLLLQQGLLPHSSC
Nature of the test: HTRF KinEASE-TK biochemical potency assay, TYRO3. The following applies: 1 nM TYRO3, 700 μM ATP, 800 nM TK Substrate-biotin. The procedure, abridged:
as §1

Broadly, the pIC50 is −log10 of the IC50, conventionally taken in molar units. Consider `O=C1CCCN1c1ccc(-c2n[nH]c3ncc(-c4ccc5c(c4)CC[C@@H](N4C6COCC4C6)CC5)cc23)cc1` [Example 122, 1-(4-{5-[(7S)-7-{3-oxa-6-azabicyclo[3.1.1]heptan-6-yl}-6,7,8,9-tetrahydro-5H-benzo[7]annulen-2-yl]-2H-pyrazolo[3,4-b]pyridin-3-yl}phenyl)pyrrolidin-2-one], for which the pIC50 against human MER and against human TYRO3 was less than 6.00 each time.
In the case of `COCCOc1ccc(-c2n[nH]c3ncc(-c4ccc5c(c4)CC[C@@H](N4C6COCC4C6)CC5)cc23)cc1` [Example 123, 6-[(7S)-2-{3-[4-(2-methoxyethoxy)phenyl]-2H-pyrazolo[3,4-b]pyridin-5-yl}-6,7,8,9-tetrahydro-5H-benzo[7]annulen-7-yl]-3-oxa-6-azabicyclo[3.1.1]heptane], the pIC50 on human MER was less than 6.00; against human TYRO3, 6.00 to 7.00.
Taken in the same sequence, the figures for `CC(C)(C)S(=O)(=O)c1ccc(-c2n[nH]c3ncc(-c4ccc5c(c4)CC[C@@H](N4C6COCC4C6)CC5)cc23)cc1` [Example 124, 6-[(7S)-2-{3-[4-(2-methylpropane-2-sulfonyl)phenyl]-2H-pyrazolo[3,4-b]pyridin-5-yl}-6,7,8,9-tetrahydro-5H-benzo[7]annulen-7-yl]-3-oxa-6-azabicyclo[3.1.1]heptane] were 6.00 to 7.00 and 6.00 to 7.00.
`CN(C)C(=O)c1ccc(-c2n[nH]c3ncc(-c4ccc5c(c4)CC[C@@H](N4C6COCC4C6)CC5)cc23)cc1` [Example 125, N,N-Dimethyl-4-{5-[(7S)-7-{3-oxa-6-azabicyclo[3.1.1]heptan-6-yl}-6,7,8,9-tetrahydro-5H-benzo[7]annulen-2-yl]-2H-pyrazolo[3,4-b]pyridin-3-yl}benzamide]: the pIC50 on human MER and against human TYRO3 was 6.00 to 7.00 throughout.
Regarding `c1cc2c(cc1-c1cnc3[nH]nc(-c4ccc(N5C[C@H]6C[C@@H]5CO6)cc4)c3c1)CC[C@@H](N1C3COCC1C3)CC2` [Example 126, (1R,4R)-5-(4-{5-[(7S)-7-{3-oxa-6-azabicyclo[3.1.1]heptan-6-yl}-6,7,8,9-tetrahydro-5H-benzo[7]annulen-2-yl]-2H-pyrazolo[3,4-b]pyridin-3-yl}phenyl)-2-oxa-5-azabicyclo[2.2.1]heptane], the pIC50 against human MER and against human TYRO3 was less than 6.00 throughout.
For the compound `FC1CN(c2ccc(-c3c[nH]c4ncc(-c5ccc6c(c5)CC[C@@H](N5C7COCC5C7)CC6)cc34)cc2)C1` [Example 127, 6-[(7S)-2-{3-[4-(3-fluoroazetidin-1-yl)phenyl]-1H-pyrrolo[2,3-b]pyridin-5-yl}-6,7,8,9-tetrahydro-5H-benzo[7]annulen-7-yl]-3-oxa-6-azabicyclo[3.1.1]heptane], the pIC50 on human MER is less than 6.00; at human TYRO3 it was 6.00 to 7.00.
